The values below come from patent publication US20110104155A1, “DRUG DELIVERY TO THE ANTERIOR AND POSTERIOR SEGMENTS OF THE EYE USING EYE DROPS” (Raouf Rekik, priority 2008, published 2011).

The conditions of data set [1]: in vivo.
Method: (§1) The experimental technique was based on ocular fundus fluorescence: Five patients were used in this study. […] Then every hour, the conjunctivae of the two eyes were exposed every hour to a 10% fluorescein solution. 8 hours later the fundus fluorescence in the two eyes was measured and analysed.
Data set [2] is described as follows: ocular fundus fluorescence after topical drug carrier plus fluorescein eye drops. Particulars: exposure of the conjunctival fornices to a 10% fluorescein solution; 7 hours later.
Method: as §1
For data set [3], the system named is macular oedema secondary to CRVO. Particulars: injected into the eye (intravitreal); cited from earlier work.

For `Brc1c(NC2=NCCN2)ccc2nccnc12` [brimonidine], in data set [1], the “anterior segment fluorescence compared with the eye receiving only fluorescein” value is reported as “stronger” and the “ocular fundus fluorescence compared with the eye receiving only fluorescein” value is “stronger”.

`O=C1OC2(c3ccc(O)cc3Oc3cc(O)ccc32)c2ccccc21` [fluorescein]: the maximum vitreous concentration in data set [2] turned out to be 1.5e-12 g/mL.

On to `CNC[C@H](O)c1cccc(O)c1` [neosynephrine], for which the “ocular fundus fluorescence compared with the eye receiving only fluorescein” value in data set [1] is given as “stronger”. On to `CC(C)(C)NC[C@H](O)COc1nsnc1N1CCOCC1` [timolol], for which, in data set [1], the “anterior segment fluorescence compared with the eye receiving only fluorescein” value was “the same” and the “ocular fundus fluorescence compared with the eye receiving only fluorescein” value is listed as “stronger”. For the compound `C[C@]12C=CC(=O)C=C1CC[C@H]1[C@@H]3C[C@@H](O)[C@](O)(C(=O)CO)[C@@]3(C)C[C@H](O)[C@@]12F` [triancinolone (Aristocert®), triancinolone], the “effect on macular oedema secondary to CRVO” value in data set [3] is given as “efficacy”. Consider bevacizumab [Avastin®], for which, in data set [3], the “effect on macular oedema secondary to CRVO” value is recorded as “improved”.
